Where no end group is shown, it is not given here.

The source of these data is patent US20260242478A1, “ANTIBODIES FOR TARGETING PSMA AND CD28 AND USES THEREOF” (Janux Therapeutics, Inc., priority 2023, published 2026).

For the experiment, the system named is anti-CD28 scFv. In words: Panning ELISA of clonal phage, anti-CD28 scFv, with or without CD28 soluble protein (Peptide-9 library). It is filed as binding. The settings on record: for Background signal: background (no anti-CD28 scFv). The procedure: Clonal phage were harvested as crude supernatants and screened via standard enzyme linked immunosorbent assays (ELISAs). […] Prior to the addition of clonal phage, wells were incubated with blocking buffer and CD28 soluble protein or blocking buffer alone. Without washing or aspirating, clonal phage supernatants were then added to the wells and incubated for a short time. Wells were then washed followed by detection of bound phage using a horse radish peroxidase conjugated anti-M13 antibody. Clonal phage of interest were then sent for sequence analysis.
For orientation: In an ELISA, binding on a coated surface is turned into a signal by an enzyme label.

anti-CD28 scFv, sequence (as listed by the source): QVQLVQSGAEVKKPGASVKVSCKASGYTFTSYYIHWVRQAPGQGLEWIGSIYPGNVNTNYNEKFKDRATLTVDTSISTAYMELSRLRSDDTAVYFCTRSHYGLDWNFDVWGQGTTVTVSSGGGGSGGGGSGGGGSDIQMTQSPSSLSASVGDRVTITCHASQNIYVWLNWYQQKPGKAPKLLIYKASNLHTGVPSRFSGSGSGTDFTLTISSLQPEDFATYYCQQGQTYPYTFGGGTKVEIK

As for Phage-311 (MDWCPRDLWYQCFN), the Background signal is 0.069. Phage-119 (MDWCPRYLWHMCYS) registered a Background signal (Peptide-9 library) of 0.129. Substance Phage-121 (MDWCPRDLWHVCFF) showed a Background signal (Peptide-9 library) of 0.068.

In the case of “Phage-279 (MDWCPRYLWAECFN; not fully specified; cysteine pairing not given here)”, the Background signal came out at 0.068. Phage-321 (MDWCPRDLWYVCFA) displayed a Background signal of 0.095. Regarding “Phage-62 (MDWCPSYLWNECFF; left off: large carriers)”, the Background signal (Peptide-9 library) is on record as 0.065.

Under “Peptide-9 library”, Phage-403 (MSWCPWDMWNECFA) gave a Background signal of 0.069.

For the substance Phage-280 (MDWCPRYLWDYCFA), the Background signal amounted to 0.073. With Phage-118 (MDWCPRHLWDECFF), under “Peptide-9 library”, the Background signal stood at 0.074. The substance Phage-406 (MNWCPIDMWTECFN) showed a Background signal (Peptide-9 library) of 0.245.

With Phage-96 (MDWCPRTLWAYCFN), under “Peptide-9 library”, the Background signal was determined as 0.070.

Phage-291 (MDWCPRYLWHVCFY) had a Background signal of 0.227. Substance Phage-306 (MDWCPRHLWNECFA) returned a Background signal of 0.068. The substance Phage-398 (MDWCPRNMWNECFF) registered a Background signal of 0.095.

The substance Phage-344 (MDWCPRHLWVHCFS) showed a Background signal of 0.096. Substance Phage-384 (IMWCPTSLWNRCVT) displayed a Background signal of 0.104. In the case of Phage-363 (MNWCPMHLWAECFN), the Background signal is 0.087.

As for Phage-396 (TDWCPRDMWYLCFN), the Background signal is given as 0.082. Same read-out and setting: then Phage-314 (MDWCPIHLWNECFN), with 0.074. As for Phage-132 (MDWCPTYLWFECFN), under “Peptide-9 library”, the Background signal amounted to 0.205. Phage-440 (MDWCPRDRWVDCFN) returned a Background signal (Peptide-9 library) of 0.106. “Phage-45 (MDWCPRPLWHECFS; not fully specified; cysteine pairing not given here)” displayed a Background signal (Peptide-9 library) of 0.078.

As for Phage-414 (LYWCPRDMWAYCYS), the Background signal (Peptide-9 library) came out at 0.068. As for Phage-360 (MDWCPMFLWHECFS), the Background signal worked out at 0.092. Regarding Phage-383 (LAGCQRDLATVCVI), the Background signal turned out to be 0.068. For the substance Phage-131 (MDWCPRSLWIYCFN), the Background signal (Peptide-9 library) stood at 0.113. Phage-300 (MDWCPRHLWFECFF) returned a Background signal of 0.178. In the case of Phage-433 (MAWCPWAQFDECLA), under “Peptide-9 library”, the Background signal was 0.073. For the setting “Peptide-9 library”, Phage-138 (MDWCPTNLWHECFA) had a Background signal of 0.061. The substance Phage-327 (MHWCPRDLWHVCFN) displayed a Background signal of 0.071. In turn, Phage-408 (MFWCPKDMWAECFA) returned a Background signal (Peptide-9 library) of 0.099. On the same count and under the same terms, next, “Phage-57 (MDWCPRHRWVDCFY; left off: large carriers)”: 0.073. With Phage-335 (MDWCPRFLWDYCFA), the Background signal is on record as 0.146.

Turning to Phage-391 (MDWCPFDMWADCFF), the Background signal amounted to 0.063. Phage-99 (MDWCPRYLWNMCFH) showed a Background signal (Peptide-9 library) of 0.114.

Take Phage-129 (MDWCPSYLWTVCFA): the Background signal (Peptide-9 library) turned out to be 0.062.

“Phage-274 (WVSCLRHHWLECFH; not fully specified; cysteine pairing not given here)” had a Background signal of 0.781. Take Phage-333 (MDWCPTDLWHECFA): the Background signal came out at 0.078. As for Phage-318 (MDWCPMFLWDECFN), the Background signal is recorded as 0.132.

For the substance Phage-417 (IYWCPTAMWNRCSA), the Background signal (Peptide-9 library) was 0.086. Substance Phage-98 (MDWCPKYLWDVCFN) gave a Background signal (Peptide-9 library) of 0.096. As to Phage-354 (MDWCPRYLWLECFN), the Background signal was found to be 0.083. As for “Phage-39 (MDWCPMHLWHQCFN; not fully specified; cysteine pairing not given here)”, the Background signal (Peptide-9 library) is on record as 0.073.

Phage-409 (LHWCPITMWTYCYY) yielded a Background signal (Peptide-9 library) of 0.229.

Take Phage-366 (MHWCPLYLWDECFY): the Background signal was determined as 0.153. Phage-93 (MDWCPRYLWTVCFS) came in with a Background signal (Peptide-9 library) of 0.115.

Regarding “Phage-40 (MDWCPIDMWDQCFN; not fully specified; cysteine pairing not given here)”, for the setting “Peptide-9 library”, the Background signal was found to be 0.061. Substance “Phage-51 (MDWCPMDLWDYCFN; not fully specified; cysteine pairing not given here)” registered a Background signal (Peptide-9 library) of 0.071. Regarding Phage-370 (MTWCPAYLWHECFN), the Background signal was found to be 0.086. Substance Phage-356 (MDWCPMYLWDECFF) had a Background signal of 0.082. Under “Peptide-9 library”, “Phage-52 (MDWCPINLWDECFS; not fully specified; cysteine pairing not given here)” gave a Background signal of 0.062. Phage-325 (MDWCPAYLWDECFA) displayed a Background signal of 0.096. Where the note is “Peptide-9 library”, Phage-114 (MDWCPRYLWFECFA) registered a Background signal of 0.066. With Phage-364 (MDWCPRSLWAQCFY), the Background signal is recorded as 0.067. Phage-135 (MDWCPKFLWHECFS): the Background signal (Peptide-9 library) was 0.065. Same read-out and setting: then “Phage-56 (MHWCPMDQWSNCFN; left off: large carriers)”, with 0.062.

Phage-323 (MDWCPTYLWNVCFA) showed a Background signal of 0.085. Phage-375 (MNWCPRALWHECFL) showed a Background signal of 0.085. In turn, “Phage-270 (MDWCPRDFWAFCFF; cysteine pairing not given here; also: large carriers left off)” had a Background signal of 0.118.

Consider “Phage-59 (MDWCPRDSWHLCFA; left off: large carriers)”, for which the Background signal (Peptide-9 library) was 0.073. On the same count and under the same terms, next, Phage-443 (MDWCPMTRWNDCYF): 0.081.

In the case of Phage-357 (MDWCPRLLWHECFN), the Background signal came out at 0.071.

With “Phage-42 (MDWCPRHLWVHCFN; not fully specified; cysteine pairing not given here)”, the Background signal (Peptide-9 library) was found to be 0.071.

Where the note is “Peptide-9 library”, Phage-412 (QHWCPRDMWNDCYA) had a Background signal of 0.066. Phage-324 (MDWCPRHLWYECFS) had a Background signal of 0.216. Under “Peptide-9 library”, “Phage-54 (MNWCPRDMWYQCFN; not fully specified; cysteine pairing not given here)” gave a Background signal of 0.068. In the case of “Phage-275 (MDWCPRDHWVDCYS; not fully specified; cysteine pairing not given here)”, the Background signal was 0.172.

Take Phage-376 (MDWCPRHLWTYCFH): the Background signal came out at 0.109. “Phage-47 (MAWCPVYLWHECFN; not fully specified; cysteine pairing not given here)” displayed a Background signal (Peptide-9 library) of 0.094.

Phage-353 (IDWCPLHLWHECYH): the Background signal turned out to be 0.067. The same measure, in the same setting: then Phage-365 (MDWCPSYLWPVCFN), with 0.079; and Phage-330 (MDWCPRFLWDVCFN), with 0.100. Phage-438 (MDWCPMSRWAFCFD) came in with a Background signal (Peptide-9 library) of 0.071. Take Phage-97 (MDWCPKDLWDYCFA): the Background signal (Peptide-9 library) was 0.078.

Phage-436 (MDWCPRDRWADCFN): the Background signal (Peptide-9 library) turned out to be 0.063. For Phage-122 (MDWCPRDLWDQCYA), the Background signal (Peptide-9 library) is 0.059. In the case of Phage-439 (MDWCPRDRWDVCFA), under “Peptide-9 library”, the Background signal is reported as 0.073.

In the case of “Phage-269 (DSFCTWSAWQECGR; not fully specified; cysteine pairing not given here)”, the Background signal was 0.072. On to Phage-322 (MDWCPRHLWIECFN), for which the Background signal was 0.339. Turning to Phage-307 (MDWCPRYLWPVCFH), the Background signal was determined as 0.179. As for Phage-395 (MDWCPKDMWAECFN), the Background signal is 0.083. For Phage-348 (MAWCPWYLWDECFN), the Background signal turned out to be 0.200. Take Phage-442 (IYWCPIDRWNDCYN): the Background signal (Peptide-9 library) amounted to 0.177. In turn, Phage-315 (MDWCPTYLWHVCFS) gave a Background signal of 0.089. Under “Peptide-9 library”, Phage-140 (MDWCPMDLWDVCFN) came in with a Background signal of 0.090. Where the note is “Peptide-9 library”, Phage-401 (MDWCPLDMWVLCFA) had a Background signal of 0.085. Take Phage-294 (MDWCPRSLWDYCFA): the Background signal came out at 0.115. For Phage-113 (MDWCPRDLWNVCFF), the Background signal (Peptide-9 library) is 0.164. Substance Phage-331 (MDWCPRHLWDECFY) came in with a Background signal of 0.098. Turning to Phage-94 (MDWCPRDLWSLCFY), the Background signal (Peptide-9 library) is given as 0.065.

Take Phage-445 (MDWCPRARWHDCFF): where the note is “Peptide-9 library”, the Background signal stood at 0.097. On the same count and under the same terms, then Phage-452 (MDWCPRDWWHMCFN), with 0.100. Substance Phage-367 (MDWCPSFLWYECFN) had a Background signal of 0.063.

For Phage-426 (MFLCPSAMWNRCFY), the Background signal (Peptide-9 library) amounted to 0.069.

Turning to Phage-302 (MDWCPRYLWHVCFD), the Background signal is given as 0.068. Consider “Phage-273 (IDWCPTAGWTYCWF; not fully specified; cysteine pairing not given here)”, for which the Background signal is 0.071. Further, the “CD28 scFv signal in presence of CD28” value (binding to anti-CD28 scFv in presence of CD28 soluble protein) is given as 0.075. Take Phage-435 (MDWCPRDRWVDCYA): the Background signal (Peptide-9 library) was 0.157.

As to Phage-316 (MDWCPRSLWNYCFA), the Background signal was found to be 0.067. Same read-out and setting: next, Phage-299 (MDWCPIYLWAECFN): 0.078.
